Experimental data published in patent publication US20210353706A1, “INHIBITION OF ENDOGENOUS REVERSE TRANSCRIPTASE AND TARGETING OF CELLS FOR PROPHYLAXIS AND THERAPY OF CANCER AND AGING” (Health Research, Inc., priority 2017, published 2021).

How the values were obtained:
LINE1 elements = assay: LINE1 retrotransposition assay (neo-resistant colonies after reporter plasmid transfection); type: cell-based; details: HeLa cells transfected with reporter plasmid
Procedure: FIG. 2 depicts a work-flow for a LINE1 retrotransposition assay as described in Moran et al. Cell 1996 87(5):917-27 (shown in box to the left).
Retrotransposition assay was performed according to Moran et al. Cell. 1996 87(5):917-27 (scheme shown to the left). HeLa cells were transfected with the reporter plasmid; appearance of neo-resistant colonies is indicative of retrotransposition events. […] It is accordingly expected that other RT inhibitors will have similar utility.

[1] = tested on: colorectal cancer cells HCT116; assay: Acquisition of PALA-resistant colonies (CAD gene amplification); type: cell-based, human; details: for number of PALA resistant colonies: HCT116 grown in presence of indicated non-toxic concentrations of RT inhibitor
Excerpt: Gene amplification can be assessed by measuring the frequency of occurrence of cell variants resistant to N-phosphonoacetyl-L-aspartate (PALA), a small molecule inhibitor of aspartate transcarbamylase of CAD protein essential for UMP biosynthesis. In human cells, PALA resistance is associated almost solely with CAD overexpression due to amplification of the CAD gene. Therefore, this can serve as a quantitative indicator of gene amplification. Usually undetectable in normal cells, gene amplification frequency can be as high as 10-5 in tumor cells. The finding that p53 inactivation and DNA demethylation by decitabine both greatly increase the frequency of gene amplification support the possibility of involvement of retroelements (which are inhibited at the epigenetic level by p53 and DNA methylation) in this process.
Right panel illustrates the data shown in the graph as images of tissue culture plates treated and untreated with RT inhibitors in the presence and in the absence of PALA. Sensitivity of HCT116 cells to RT inhibitors alone were determined using quantitation of adherent cells following 72 hours of incubation in the presence of a range of concentrations of RT inhibitors (curves in the graph with the scale of cell viability shown on the right).

HeLa cells = assay: Clonogenicity of HeLa cells; type: cell-based; details: indicated concentrations of stavudine
[2] = tested on: Th-MYCN transgenic mice (spontaneous neuroblastomas); assay: Tumor relapse after chemotherapy in mouse spontaneous neuroblastoma model; type: in vivo
Excerpt: In particular, 100% of Th-MYCN transgenic mice (strain 129X1/SvJ-Tg(TH-MYCN)41Waw/Nci) homozygous for MYCN transgene develop spontaneous neuroblastomas in their abdomens around 30 days of age. Mice carrying this transgene show many of the features of the human childhood disease including sensitivity to conventional treatments. Indicated treatments were started at the times of first appearance of palpable tumors.

Cc1cn([C@H]2C=C[C@@H](CO)O2)c(=O)[nH]c1=O [stavudine]
concentrations at which stavudine is effective in inhibiting LINE1 retrotransposition (LINE1 elements): above 5 mM
number of PALA resistant colonies [1]: greatly decreased
number of PALA resistant colonies ([1]; listed as STV): dramatically reduces
frequency of gene amplification in vitro ([1]; tumor cells in vitro): greatly reduced
effect on clonogenicity of HeLa cells (HeLa cells): lack of effect
antitumor effect of stavudine alone ([2]; 1.5 mg/ml in drinking water, no chemotherapy): no detectable antitumor effect
extension of average tumor-free survival ([2]; continuous stavudine 1.5 mg/ml in drinking water with cyclophosphamide and topotecan): nearly two-fold
proportion of disease free animals with no relapses detected within >100 days of observation ([2]; continuous stavudine with cyclophosphamide and topotecan): significantly increased
